{"source": "patent US9937235B2", "about": "“Lipidated peptides as anti-obesity agents” (USTAV ORGANICKE CHEMIE A BIOCHEMIE AKADEMIE VED CR, V.V.I, priority 2012, dated 2018)", "key": {"[1]": {"system": "MAPK/ERK1/2 signaling pathway in RC-4B/C cells", "experiment": "MAPK/ERK1/2 signaling in RC-4B/C cells (Western blot)", "assay_type": "cell-based, rat", "settings": "10^−6 mol·l^−1, 5 minute incubation"}, "fasted C57BL/6 mice [2]": {"system": "fasted C57BL/6 mice", "experiment": "Food intake in fasted mice after SC administration", "assay_type": "in vivo, mouse", "settings": "for food intake in fasted mice (in words): SC (peripheral) administration; for food intake / % control: SC administration; for % control: food intake vs saline", "summary_of_the_method": "(§1)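 Male C57BL/6 mice, food-deprived 17 h, received saline, PrRP or lipidated analogs either SC at 1-10 mg/kg or ICV into the third ventricle at 4 nmol/mouse.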"}, "fasted C57BL/6 mice [3]": {"system": "fasted C57BL/6 mice", "experiment": "Food intake in fasted mice after ICV administration", "assay_type": "in vivo", "settings": "4 nmol/mouse; for % control: food intake vs saline", "summary_of_the_method": "as §1"}}, "note": "Where a SMILES comes first, the peptide text is derived from it. [ ]: non-standard residue; d: D form. The star is where a group is joined. Palmitoyl = CCCCCCCCCCCCCCCC(=O)*; Myristoyl = CCCCCCCCCCCCCC(=O)*; Nle = CCCC[C@H](N)C(=O)O; Dap = NC[C@H](N)C(=O)O"}
{"smiles": "CCCCCCCCCCCCCC(=O)NC[C@H](N)C(=O)N[C@@H](CCCNC(=N)N)C(=O)N[C@@H](C)C(=O)N[C@@H](Cc1c[nH]cn1)C(=O)N[C@@H](CCC(N)=O)C(=O)N[C@@H](Cc1c[nH]cn1)C(=O)N[C@@H](CO)C(=O)N[C@@H](CCCC)C(=O)N[C@@H](CCC(=O)O)C(=O)N[C@H](C(=O)N[C@@H](CCCNC(=N)N)C(=O)N[C@H](C(=O)N1CCC[C@H]1C(=O)N[C@@H](CC(=O)O)C(=O)N[C@H](C(=O)N[C@@H](CC(N)=O)C(=O)N1CCC[C@H]1C(=O)N[C@@H](C)C(=O)N[C@@H](Cc1c[nH]c2ccccc12)C(=O)N[C@@H](Cc1ccc(O)cc1)C(=O)N[C@H](C(=O)NCC(=O)N[C@@H](CCCNC(=N)N)C(=O)NCC(=O)N[C@H](C(=O)N[C@@H](CCCNC(=N)N)C(=O)N1CCC[C@H]1C(=O)N[C@H](C(=O)NCC(=O)N[C@@H](CCCNC(=N)N)C(=O)N[C@@H](Cc1ccccc1)C(N)=O)C(C)C)[C@@H](C)CC)[C@@H](C)O)[C@@H](C)CC)[C@@H](C)O)[C@@H](C)O", "note": "[Analog 5] (H-[Dap](Myristoyl)RAHQHS[Nle]ETRTPDINPAWYTGRGIRPVGRF-NH2)", "values": [{"measurement": "ERK signaling", "setting": "[1]", "result": "agonist"}, {"measurement": "food intake in fasted mice (in words)", "setting": "fasted C57BL/6 mice [2]", "result": "significantly decreased food intake"}, {"measurement": "dose dependence of the lowering of food intake", "setting": "fasted C57BL/6 mice [2]; SC administration, 1, 2, 5 and 10 mg/kg, FIG. 5 and 6", "result": "dose dependent"}, {"measurement": "food intake", "setting": "fasted C57BL/6 mice [2]; 45 minutes, 10 mg/kg", "result": 0.05, "unit": "g"}, {"measurement": "% control", "setting": "fasted C57BL/6 mice [2]; 45 minutes, 10 mg/kg", "result": 25, "unit": "%"}, {"measurement": "food intake", "setting": "fasted C57BL/6 mice [2]; 300 minutes, 10 mg/kg", "result": 0.18, "unit": "g"}, {"measurement": "% control", "setting": "fasted C57BL/6 mice [2]; 300 minutes, 10 mg/kg", "result": 21, "unit": "%"}, {"measurement": "food intake", "setting": "fasted C57BL/6 mice [3]; 45 minutes", "result": 0.35, "unit": "g"}, {"measurement": "% control", "setting": "fasted C57BL/6 mice [3]; 45 minutes", "result": 62, "unit": "%"}, {"measurement": "food intake", "setting": "fasted C57BL/6 mice [3]; 300 minutes", "result": 0.96, "unit": "g"}, {"measurement": "% control", "setting": "fasted C57BL/6 mice [3]; 300 minutes", "result": 73, "unit": "%"}]}
{"smiles": "CCCCCCCCCCCCCCCC(=O)NC[C@H](N)C(=O)N[C@@H](CCCNC(=N)N)C(=O)N[C@@H](C)C(=O)N[C@@H](Cc1c[nH]cn1)C(=O)N[C@@H](CCC(N)=O)C(=O)N[C@@H](Cc1c[nH]cn1)C(=O)N[C@@H](CO)C(=O)N[C@@H](CCCC)C(=O)N[C@@H](CCC(=O)O)C(=O)N[C@H](C(=O)N[C@@H](CCCNC(=N)N)C(=O)N[C@H](C(=O)N1CCC[C@H]1C(=O)N[C@@H](CC(=O)O)C(=O)N[C@H](C(=O)N[C@@H](CC(N)=O)C(=O)N1CCC[C@H]1C(=O)N[C@@H](C)C(=O)N[C@@H](Cc1c[nH]c2ccccc12)C(=O)N[C@@H](Cc1ccc(O)cc1)C(=O)N[C@H](C(=O)NCC(=O)N[C@@H](CCCNC(=N)N)C(=O)NCC(=O)N[C@H](C(=O)N[C@@H](CCCNC(=N)N)C(=O)N1CCC[C@H]1C(=O)N[C@H](C(=O)NCC(=O)N[C@@H](CCCNC(=N)N)C(=O)N[C@@H](Cc1ccccc1)C(N)=O)C(C)C)[C@@H](C)CC)[C@@H](C)O)[C@@H](C)CC)[C@@H](C)O)[C@@H](C)O", "note": "[Analog 6] (H-[Dap](Palmitoyl)RAHQHS[Nle]ETRTPDINPAWYTGRGIRPVGRF-NH2)", "values": [{"measurement": "ERK signaling", "setting": "[1]", "result": "agonist"}, {"measurement": "food intake in fasted mice (in words)", "setting": "fasted C57BL/6 mice [2]", "result": "significantly decreased food intake"}, {"measurement": "food intake", "setting": "fasted C57BL/6 mice [2]; 45 minutes, 5 mg/kg", "result": 0, "unit": "g"}, {"measurement": "% control", "setting": "fasted C57BL/6 mice [2]; 45 minutes, 5 mg/kg", "result": 0, "unit": "%"}, {"measurement": "food intake", "setting": "fasted C57BL/6 mice [2]; 300 minutes, 5 mg/kg", "result": 0.14, "unit": "g"}, {"measurement": "% control", "setting": "fasted C57BL/6 mice [2]; 300 minutes, 5 mg/kg", "result": 14, "unit": "%"}, {"measurement": "food intake", "setting": "fasted C57BL/6 mice [3]; 45 minutes", "result": 0.38, "unit": "g"}, {"measurement": "% control", "setting": "fasted C57BL/6 mice [3]; 45 minutes", "result": 71, "unit": "%"}, {"measurement": "food intake", "setting": "fasted C57BL/6 mice [3]; 300 minutes", "result": 1.3, "unit": "g"}, {"measurement": "% control", "setting": "fasted C57BL/6 mice [3]; 300 minutes", "result": 100, "unit": "%"}]}
